For 72 molecules, melting point results are on record in patent US6700013B2, “Tricyclic fused heterocycle compounds, process for preparing the same and use thereof” (Nippon Suisan Kaisha, Ltd., priority 1999, dated 2004).

In turn, `O=C1Cc2ccc(-c3cccc(C(F)(F)F)c3)cc2Oc2cc(O)cc(O)c21` [Example 73] showed a melting point of 183 to 184.7 °C.
For `Nc1cccc(-c2ccc3c(c2)Oc2cc(O)cc(O)c2C(=O)C3)c1` [Example 74] the value was 228.3 to 230 °C; for `O=CNc1cccc(-c2ccc3c(c2)CC(=O)c2c(O)cc(O)cc2O3)c1` [Example 75], 241 to 247.08 °C.
For `O=C1Cc2cc(-c3cccs3)ccc2Sc2cc(O)cc(O)c21` [Example 76] the value was 240.1 to 246.1 °C; for `O=C1Cc2cc(-c3ccc(O)cc3O)ccc2Oc2cc(O)cc(O)c21` [Example 77], 212.6 to 215.7 °C.
For `O=C1Cc2cc(-c3ccccc3)ccc2Sc2cc(O)cc(O)c21` [Example 78] the value was 190.8 to 195.3 °C; for `O=C1Cc2cc(-c3ccc(-c4ccccc4)cc3)ccc2Oc2cc(O)cc(O)c21` [Example 79], > 250 °C (dec.); for `O=C1Cc2cc(-c3cccc([N+](=O)[O-])c3)ccc2Sc2cc(O)cc(O)c21` [Example 80], > 250 °C (dec.).
For `O=C1Cc2ccc(-c3cccs3)cc2Sc2cc(O)cc(O)c21` [Example 81], the melting point is 214.3 to 215.3 °C.
Under `Nc1cccc(-c2ccc3c(c2)CC(=O)c2c(O)cc(O)cc2S3)c1` [Example 83] stands > 200 °C (dec.); under `O=C1Cc2cc(-c3ccco3)ccc2Sc2cc(O)cc(O)c21` [Example 84], 243.5 to 248.4 °C (dec.).
Take `Cc1ccc(-c2ccc3c(c2)Sc2cc(O)cc(O)c2C(=O)C3)cc1` [Example 86]: the melting point is 228.4 to 235.2 °C.
For `O=C1Cc2ccc(-c3ccccc3)cc2Sc2cc(O)cc(O)c21` [Example 87] the value was 209.7 to 212 °C; for `O=C1Cc2cc(-c3ccccc3)ccc2Oc2cc(O)c(O)c(O)c21` [Example 88], 124 to 125.8 °C.
Under `Cc1ccccc1-c1ccc2c(c1)Sc1cc(O)cc(O)c1C(=O)C2` [Example 89] stands 178.1 to 198.3 °C.
For `O=C1Cc2ccc(-c3cccc(Cl)c3)cc2Sc2cc(O)cc(O)c21` [Example 90] the value was 180.3 to 191.6 °C; for `O=C1Cc2ccc(-c3cccc(C(F)(F)F)c3)cc2Sc2cc(O)cc(O)c21` [Example 91], 225.3 to 226.5 °C.
In the case of `O=C1Cc2ccc(-c3cc4ccccc4o3)cc2Sc2cc(O)cc(O)c21` [Example 92], the melting point is 251.6 to 253.8 °C.
For `O=C1Cc2cc(-c3ccc(O)c(O)c3)ccc2Oc2cc(O)cc(O)c21` [Example 93] the value was greater than 250 °C; for `O=C1Cc2cc(-c3cc4ccccc4o3)ccc2Oc2cc(O)cc(O)c21` [Example 94], 268.4 to 268.5 °C.
For `O=C1Cc2ccc(-c3cc4ccccc4o3)cc2Oc2cc(O)cc(O)c21` [Example 95] the value was 257.9 to 259.9 °C; for `O=C1Cc2ccc(-c3ccc(-c4ccccc4)cc3)cc2Oc2cc(O)cc(O)c21` [Example 96], 261.6 to 263.2 °C.
For `O=C1Cc2ccc(-c3ccc(OC(F)(F)F)cc3)cc2Oc2cc(O)cc(O)c21` [Example 97] the value was 197.7 to 200.8 °C.
The molecule `O=C1Cc2ccc(-c3ccc(O)c(O)c3)cc2Oc2cc(O)cc(O)c21` [Example 98] yielded a melting point of 229.8 to 231.6 °C.
Under `O=C1Cc2ccc(-c3ccc(O)cc3O)cc2Oc2cc(O)cc(O)c21` [Example 100] stands 239.1 to 242.6 °C; under `O=C1Cc2ccc(C#Cc3ccccc3)cc2Oc2cc(O)cc(O)c21` [Example 101], 189.4 to 191.1 °C; under `OCCCc1ccc2c(c1)CCc1c(O)cc(O)cc1O2` [Example 103], 153.3 to 154.8 °C.
For `Oc1cc(O)c2c(c1)Oc1cc(CCc3ccccc3)ccc1CC2` [Example 108] the value was 169.1 to 174.9 °C; for `Oc1cc(O)c2c(c1)Oc1ccc(-c3ccccc3)cc1CC2` [Example 109], 176.7 to 179.2 °C; for `Oc1cc(O)c2c(c1)Oc1ccc(-c3cccs3)cc1CC2` [Example 111], 188.3 to 191.4 °C.
For `Cc1ccc(-c2ccc3c(c2)Oc2cc(O)cc(O)c2CC3)cc1` [Example 112] the value was 195.1 to 197.1 °C; for `Oc1cc(O)c2c(c1)Oc1ccc(CCc3ccccc3)cc1CC2` [Example 113], 151.8 to 152.7 °C.
Regarding `Oc1cc(O)c2c(c1)Oc1ccc(-c3ccco3)cc1CC2` [Example 114], the melting point lay within 163.6 to 173.9 °C.
Under `Oc1cc(O)c2c(c1)Oc1cc(-c3ccco3)ccc1CC2` [Example 115] stands 198.6 to 201.1 °C.
For `Oc1cc(O)c2c(c1)Oc1cc(-c3cccc(C(F)(F)F)c3)ccc1CC2` [Example 117] the value was 150.2 to 152.6 °C; for `Oc1cc(O)c2c(c1)Oc1cc(-c3cccc(Cl)c3)ccc1CC2` [Example 118], 137.1 to 143.2 °C.
The molecule `Nc1cccc(-c2ccc3c(c2)CCc2c(O)cc(O)cc2O3)c1` [Example 119] returned a melting point of 197.2 to 199.3 °C.
For `O=[N+]([O-])c1cccc(-c2ccc3c(c2)CCc2c(O)cc(O)cc2O3)c1` [Example 120] the value was 199.6 to 201.8 °C; for `N#Cc1ccc2c(c1)CCc1c(O)cc(O)cc1O2` [Example 122], 211.8 to 217.3 °C.
For `Oc1cc(O)c2c(c1)Sc1cc(-c3cccs3)ccc1CC2` [Example 123] the value was 196.1 to 198.5 °C; for `Oc1cc2c(c(O)c1O)CCc1cc(-c3ccccc3)ccc1O2` [Example 125], 175.1 to 178.3 °C; for `Oc1cc(O)c2c(c1)Sc1ccc(-c3cccs3)cc1CC2` [Example 126], 207.3 to 208.1 °C.
For `Oc1cc(O)c2c(c1)Sc1ccc(-c3ccco3)cc1CC2` [Example 127] the value was 213.7 to 214.7 °C.
As for `CCCC(=O)c1ccc2c(c1)CCc1c(O)cc(O)cc1O2` [Example 128], the melting point lay in the range of 157.6 to 157.9 °C.
For `CCCC(=O)c1ccc2c(c1)CCc1c(O)cc(O)cc1S2` [Example 129] the value was 151.8 to 152.8 °C; for `CCCCC(=O)c1ccc2c(c1)CCc1c(O)cc(O)cc1O2` [Example 130], 119.8 to 121.7 °C; for `CCCCC(=O)c1ccc2c(c1)CCc1c(O)cc(O)cc1S2` [Example 131], 155.1 to 158.7 °C.
Turning to `O=C(c1ccc2c(c1)CCc1c(O)cc(O)cc1S2)C1CCC1` [Example 134], the melting point lay in the range of 141.2 to 141.7 °C.
`O=C(c1ccc2c(c1)CCc1c(O)cc(O)cc1S2)C1CC1` [Example 135] displayed a melting point of 142.2 to 143.5 °C.
For `CC(C)(C)c1ccc2c(c1)CCc1c(O)cc(O)cc1S2` [Example 137] the value was 151.7 to 153.7 °C; for `CON=C(C)c1ccc2c(c1)CCc1c(O)cc(O)cc1S2` [Example 138], 176.7 to 177.6 °C.
For `CCON=C(C)c1ccc2c(c1)CCc1c(O)cc(O)cc1S2` [Example 139] the value was 110.7 to 112.4 °C.
For the molecule `CCC1=Cc2cc(O)c(O)cc2Sc2ccccc21` [Example 143], the melting point is 37.9 to 41.5 °C.
Under `CC1=Cc2cc(O)c(O)cc2Sc2ccccc21` [Example 145] stands 68.2 to 70.1 °C; under `CCC1C(=O)c2cc(O)c(O)cc2Sc2cc(-c3ccco3)ccc21` (stereo not drawn) [Example 153], 242.9 to 248.4 °C.
For `CCC1C(=O)c2cc(O)c(O)cc2Sc2cc(-c3ccccc3)ccc21` (stereo not drawn) [Example 154] the value was 274.3 to 276.1 °C; for `CCC1C(=O)c2cc(O)c(O)cc2Sc2cc(-c3cccs3)ccc21` (stereo not drawn) [Example 155], 270.3 to 271.9 °C.
Under `CCC1C(=O)c2cc(O)c(O)cc2Sc2cc(-c3cccc(C(F)(F)F)c3)ccc21` (stereo not drawn) [Example 156] stands 109.7 to 111.9 °C; under `CCC1C(=O)c2cc(O)c(O)cc2Sc2cc(-c3cccc(Cl)c3)ccc21` (stereo not drawn) [Example 157], 175.5 to 176.8 °C.
`CCC1C(=O)c2cc(O)c(O)cc2Sc2cc(-c3ccccc3C)ccc21` (stereo not drawn) [Example 158] had a melting point of 179.2 to 181.1 °C.
Under `CCC1C(=O)c2cc(O)c(O)cc2Sc2ccc(-c3ccco3)cc21` (stereo not drawn) [Example 159] stands 238.7 to 241.7 °C; under `CCC1C(=O)c2cc(O)c(O)cc2Sc2cc(-c3ccc(C)cc3)ccc21` (stereo not drawn) [Example 160], 271.9 to 273.3 °C.
In the case of `CCC1C(=O)c2cc(O)c(O)cc2Sc2ccc(-c3cc4ccccc4o3)cc21` (stereo not drawn) [Example 161], the melting point is 277.4 to 279.2 °C.
The molecule `CCC1C(=O)c2cc(O)c(O)cc2Sc2ccc(-c3cccs3)cc21` (stereo not drawn) [Example 162] came in with a melting point of 225.7 to 227.4 °C.
For `CCC1C(=O)c2cc(O)c(O)cc2Sc2ccc(-c3ccccc3)cc21` (stereo not drawn) [Example 163] the value was 225.7 to 227.3 °C.
With `CCC1C(=O)c2cc(O)c(O)cc2Sc2cc(-c3cc4ccccc4o3)ccc21` (stereo not drawn) [Example 168], the melting point was 293.2 °C (dec.).
For `CCC1C(=O)c2cc(O)c(O)cc2Sc2cc(-c3ccc(OC(F)(F)F)cc3)ccc21` (stereo not drawn) [Example 169] the value was 216.8 to 219.1 °C; for `CCC1C(=O)c2cc(O)c(O)cc2Sc2cc(-c3ccc(-c4ccccc4)cc3)ccc21` (stereo not drawn) [Example 171], greater than 300 °C.
For `CCC1C(=O)c2cc(O)c(O)cc2Sc2ccc(-c3cc4ccccc4s3)cc21` (stereo not drawn) [Example 172] the value was 251.4 to 255.5 °C (dec.); for `CCC1C(=O)c2cc(O)c(O)cc2Sc2cc(-c3cccc([N+](=O)[O-])c3)ccc21` (stereo not drawn) [Example 175], 221.8 to 225 °C; for `CCC1C(=O)c2cc(O)c(O)cc2Sc2cc(-c3cccc(N)c3)ccc21` (stereo not drawn) [Example 176], 245.5 to 246.4 °C.
For `CCC1C(=O)c2cc(O)c(O)cc2Sc2cc(-c3ccc(O)cc3)ccc21` (stereo not drawn) [Example 177] the value was 155.4 to 159.4 °C.

What is called melting point is the temperature of the solid-liquid transition.
